In patent publication US6300501A, “Histidine-(N-benzyl glycinamide) inhibitors of protein farnesyl transferase” (Warner-Lambert Company, priority 1998, dated 2001):
Where two headings read alike, the source gives them in different places.

How the values were obtained:
[1] = system: H61 cells: NIH transformed 3T3 H-ras cells; assay: Clonogenic assay (6 well plates, soft agar); format: cell-based
Experimental: Clonoaenic Assay (6 well lates)
Sometime previous to setting up an actual test:
1. Make up 1.5% Bacto Agar in Milli-Q water and autoclave.
2. Make up 500 mL 2× DMEM-HG without phenol red by combining the following:
1 bottle DMEM base powder (Sigma D-5030)
Adjust pH to 7.1 with HCL; filter sterilize.
1. Set up makeshift water bath (beaker of water with thermometer, on hot plate) in the hood. Keep water temperature between 37° C. to 43° C.
2. […] 1.5% Bacto Agar for approximately 2 minutes on high, or until completely melted. Then let it cool somewhat before using it. (You can keep it from resolidifying by setting the bottle on the hot plate.) […]
3. Bottom Layer (0.6% agar) Top Layer (0.3% agar)
20% calf serum 20% calf serum
40% Bacto Agar (1.5%) 20% Bacto Agar (1.5%)
Depending on the volume of each layer needed, use either 50 mL conical tubes or 200 mL turnip tubes which can be floated in the "water bath".
4. Add 1 mL of bottom layer agar/medium to each well: deliver 1 mL warm agar/medium to a well; then using the tip of the pipet, spread the agar/medium around to completely cover the bottom. Repeat with next well.
5. Allow the plates to set at room temperature for about 5 minutes until the bottom layer solidifies.
6. Label sterile Falcon 2054 (12×75 mm) tubes and add appropriate volume of drug solutions into them.
7. Aliquot 4 AL of DMSO or drug solution per 1 mL of agar/medium to appropriate tubes; then add the agar/medium/cells to each tube. Always add 1 mL more than will actually be needed. Mix up and down in the pipet (gently); then deliver 1 mL to the center of each well. The upper layer is less viscous, so it will generally spread out over the bottom layer unaided. If necessary, rotate the plane of the plate gently to spread the top layer evenly over the bottom layer.
8. Let plates set for 5 or 10 minutes at room temperature to solidify, then put into 5% CO2, 37° C. incubator.
9. On Day 13, add 0.5 mL of INT (tetrazolium 1 mg/mL in Milli-Q H2 O, filter sterilized) and return plates to incubator.

[2] = system: ras farnesylation in ras-transformed cells; assay: Gel shift assay; format: cell-based; conditions: for minimal effective concentration: ras-transformed cells, 18-hour incubation, read-out: Gel Shift (μM) MED (minimal effective dose to observe inhibition of ras farnesylation)
Experimental: Twenty-four hours after planting 2×10^6 ras-transformed cells per treatment condition, the farnesylation inhibitor is added at varying concentrations. Following an 18-hour incubation period, cells are lysed in phosphate-buffered saline containing 1% Triton X-100, 0.5% sodium deoxycholate, and 0.1% SDS (sodium dodecyl sulfate), pH 7.4 in the presence of several protease inhibitors (PMSF (phenylmethylsulfonylfluoride), antipain, leupeptin, pepstatin A, and aprotinin all at 1 μg/mL). Ras protein is immunoprecipitated from the supernatants by the addition of 3 μg v-H-ras Ab-2 (Y13-259 antibody from Oncogene Science). After overnight immunoprecipitation, 30 μL of a 50% protein G-Sepharose slurry (Pharmacia) is added followed by 45-minute incubation. Pellets are resuspended in 2× tris-glycine loading buffer (Novex) containing 5% β-mercaptoethanol and then denatured by 5 minutes boiling prior to electrophoresis on 14% Tris-glycine SDS gels. Using Western transfer techniques, proteins are transferred to nitrocellulose membranes followed by blocking in blocking buffer. Upon overnight incubation with primary antibody (pan-ras Ab-2 from Oncogene Science), an antimouse HRP (horse radish peroxidase) conjugate secondary antibody (Amersham) is employed for detection of the ras protein. Blots are developed using ECL(enhanced chemiluminescence) techniques (Amersham).

[3] = target: T1, SF9 affinity purified rat farnesyl protein transferase (Rattus norvegicus, UniProt Q02293+Q04631); assay: PFT inhibitory activity (radiolabeled farnesyl pyrophosphate, streptavidin bead assay); format: biochemical
T1 construct: made in house; host or cells: Sf9 insect cells (baculovirus system inferred from b7)
T1 sequence (Q02293 whole entry, one chain of several): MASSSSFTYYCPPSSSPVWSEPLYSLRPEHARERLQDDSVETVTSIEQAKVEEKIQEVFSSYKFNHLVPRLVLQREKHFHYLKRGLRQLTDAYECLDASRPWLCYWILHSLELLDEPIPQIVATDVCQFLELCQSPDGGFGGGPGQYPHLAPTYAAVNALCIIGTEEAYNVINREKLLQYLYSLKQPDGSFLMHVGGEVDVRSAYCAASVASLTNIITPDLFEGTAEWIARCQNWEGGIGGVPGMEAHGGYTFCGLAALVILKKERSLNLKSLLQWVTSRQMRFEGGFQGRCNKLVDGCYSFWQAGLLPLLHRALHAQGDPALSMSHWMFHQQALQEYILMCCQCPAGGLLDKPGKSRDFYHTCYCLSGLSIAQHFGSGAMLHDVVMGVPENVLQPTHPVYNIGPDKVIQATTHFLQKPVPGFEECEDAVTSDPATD
Experimental: The protein:farnesyl transferase (PFT) or farnesyl protein transferase (FPT) inhibitory activity of compounds of the present invention were assayed in HEPES buffer (pH 7.4) containing 5 mM potassium phosphate and 20 μM ZnCl2. The solution also contained 5 mM DTT (dithiothreitol), 5 mM MgCl2, and 0.1% PEG 8000. Assays were performed in 96 well plates (Wallec) and employed solutions composed of varying concentrations of a compound of the present invention in 100% DMSO (dimethylsulfoxide). Upon addition of both substrates, radiolabeled farnesyl pyrophosphate ([1^3 H], specific activity 15-30 Ci/mmol, final concentration 134 nM) and (biotinyl)-Ahe-Thr-Lys-Cys-Val-Ile-Met ([3aS[3a alpha, 4 beta, 6a alpha]-hexahydro-2-oxo-1H-thieno[3,4-d]imidazole-5-pentanoic acid]-[7-aminoheptanoic acid]-Thr-Lys-Cys-Val-Ile-Met) (Ahe is 7-aminoheptanoic acid, Thr is threonine, Lys is lysine, Cys is cysteine, Val is valine, Ile is isoleucine and Met is methionine) (final concentration 0.2 μM), the enzyme reaction was started by addition of SF9 affinity purified rat farnesyl protein transferase. After incubation at 30° C. for 30 minutes, the reaction was terminated by diluting the reaction 2.5-fold with a stop buffer containing 1.5 M magnesium acetate, 0.2 M H3 PO4, 0.5% BSA (bovine serum albumin), and strepavidin beads (Amersham) at a concentration of 1.3 mg/mL. After allowing the plate to settle for 30 minutes at room temperature, radioactivity was quantitated on a microBeta counter (Model 1450, Wallec). The assay was also carried out without 5 mM potassium phosphate.

[4] = average obtained by additional tests, read-out: Clonogenic Assay IC50 (μM), number in parentheses
[5] = colonies counted after Day 13, read-out: Clonogenic Assay IC50
[6] = HEPES buffer pH 7.4, without 5 mM potassium phosphate, read-out: IC50 (μM) Hepes
[7] = HEPES buffer pH 7.4 containing 5 mM potassium phosphate, read-out: IC50 (μM) 5 mM K3 PO4 -2
[8] = 312 h, colonies counted after Day 13, read-out: Clonogenic Assay IC50
[9] = with 5 mM potassium phosphate, average obtained by additional tests, read-out: IC50 (μM) 5 mM K3 PO4 -2, number in parentheses
[10] = without 5 mM potassium phosphate, average obtained by additional tests, read-out: IC50 (μM) Hepes, number in parentheses

SMILES	IC50 [1, 4] [µM]	IC50 [1, 5] [µM]	minimal effective concentration [2] [µM]	IC50 [3, 6] [µM]	IC50 [3, 7] [µM]	IC50 [1, 8] [µM]	IC50 [3, 9] [µM]	IC50 [3, 10] [µM]	Gel Shift (μM) MED, number in parentheses ([2]; average obtained by additional tests) [µM]
O=C(CN(Cc1ccc(OCc2ccccc2)cc1)C(=O)[C@H](Cc1c[nH]cn1)NC(=O)OCc1ccccc1)NCCOCc1ccccc1 [Example 1, (S)-N-[(Phenylmethoxy)carbonyl]-L-histidyl-N-[2-(phenylmethoxy)ethyl]-N. sup.2-[[4-(phenylmethoxy)phenyl]-methyl]alycinamide]	14.3	2.7	1	7.7	0.26	–	–	–	–
CC(CNC(=O)CN(Cc1ccc(OCc2ccccc2)cc1)C(=O)[C@H](Cc1c[nH]cn1)NC(=O)NCc1ccccc1)c1ccccc1 (stereo partly drawn) [Example 6, (S)-N-(4-Benzyloxy-benzyl)-2-(3-benzyl-ureido)-3-(1H-imidazole-4-yl)-N-[(2-phenyl-propylcarbamoyl)-methyl]-propionamide]	–	–	0.2	0.2	0.0022	> 1	0.017	0.5	–
O=C(CN(Cc1ccc(Cl)cc1)C(=O)[C@H](Cc1c[nH]cn1)NC(=O)OCc1ccccc1)NCCOCc1ccccc1 [Example 3]	–	> 1	0.25	3.1	0.97	–	0.61	2.8	–
Cc1ccccc1CN(CC(=O)NCC(C)c1ccccc1)C(=O)[C@H](Cc1c[nH]cn1)NC(=O)OCc1ccccc1 (some centres unmarked) [Example 43]	–	> 1	0.2	3.9	0.038	–	–	–	–
CC(CNC(=O)CN(Cc1ccc(OCc2ccccc2)cc1)C(=O)[C@H](Cc1c[nH]cn1)NC(=O)OCc1ccccc1)c1ccccc1Cl (stereo partly drawn) [Example 32, (S)-[1-((4-Benzyloxy-benzyl)-{[2-(2-chloro-phenyl)-propylcarbamoyl]-methyl}-carbamoyl)-2-(1H-imidazole-4-yl)-ethyl]-carbamic Acid Benzyl Ester]	–	–	0.05	0.32	0.007	0.36	–	–	–
CC(CNC(=O)CN(Cc1ccc(OCc2ccccc2)cc1)C(=O)[C@H](Cc1cnc[nH]1)NC(=O)OCc1ccccc1)c1ccccc1N (some centres unmarked) [Example 21]	–	0.3	0.05	0.16	0.008	–	–	–	–
N#CC(CNC(=O)CN(Cc1ccc(OCc2ccccc2)cc1)C(=O)[C@H](Cc1c[nH]cn1)NC(=O)OCc1ccccc1)c1ccccc1 (some centres unmarked) [Example 45]	–	0.14	0.05	0.35	0.0024	–	–	–	–
O=C(CN(Cc1ccc(OCc2ccccc2)cc1)C(=O)[C@H](Cc1c[nH]cn1)NC(=O)OCc1ccccc1)NCCc1ccccc1Cl [Example 53]	–	12.4	0.2	10.6	0.12	–	–	–	–
CC(CNC(=O)CN(Cc1ccc(OCc2ccccc2)cc1)C(=O)[C@H](Cc1c[nH]cn1)NC(=O)CCc1ccccc1)c1ccccc1 (stereo partly drawn) [Example 17, (S)-N-(4-Benzyloxy-benzyl)-3-(1H-imidazole-4-yl)-2-(3-phenyl-proponylamino)-N-[(2-phenyl-propylcarbamoyl)-methyl]-propionamide]	–	> 1	0.2	2.8	0.086	–	–	–	–
CCC(CNC(=O)CN(Cc1ccc(OCc2ccccc2)cc1)C(=O)[C@H](Cc1c[nH]cn1)NC(=O)NCc1ccccc1)c1ccccc1 (stereo partly drawn) [Example 27, (S)-N-(4-Benzyloxy-benzyl)-2-(3-benzyl-ureido)-3-(1H-imidazole-4-yl)-N-[(2-phenyl-butylcarbamoyl)-methyl]-propionamide]	–	–	0.2	0.12	0.014	> 1	–	–	–
COc1cccc(CN(CC(=O)NCC(C)c2ccccc2)C(=O)[C@H](Cc2c[nH]cn2)NC(=O)OCc2ccccc2)c1 (stereo partly drawn) [Example 35, (S)-(2-(1H-Imidazole-4-yl)-1-{(3-methoxy-benzyl)-[(2-phenyl-propylcarbamoyl)-methyl]-carbamoyl}-ethyl)-carbamic Acid Benzyl Ester]	–	–	0.2	2.1	0.009	> 1	–	–	–
O=C(CN(Cc1ccc(OCc2ccccc2)cc1)C(=O)[C@H](Cc1c[nH]cn1)NC(=O)OCc1ccccc1)NCC(c1ccccc1)c1ccccc1 [Example 5, (S)-[1-[(4-Benzyloxy-benzyl)-[(2,2-diphenyl-ethylcarbamoyl)-methyl]-carbamoyl]-2-(1H-imidazole-4-yl)-ethvl]-carbamic Acid Benzyl Ester]	2.5	0.71	0.2	1.73	0.038	–	–	1.6	0.05
CC(CNC(=O)CN(Cc1ccccc1)C(=O)[C@H](Cc1c[nH]cn1)NC(=O)OCc1ccccc1)c1ccccc1 (stereo partly drawn) [Example 23, (S)-[1-{Benzyl-[(2-phenyl-propylcarbamoyl)-methyl]-carbamoyl}-2-(1H-imidazole-4-yl)-ethyl]-carbamic Acid Benzyl Ester]	–	–	0.2	1.6	0.022	> 1	–	–	–
CC(CNC(=O)CN(Cc1ccc(OCc2ccccc2)cc1)C(=O)[C@H](Cc1c[nH]cn1)NC(=O)OCc1ccccc1)c1ccccc1 (stereo partly drawn) [Example 4, (S)-[1-[(4-Benzyloxy-benzyl)-[(2-phenyl-propyl-carbamoyl)-methyl]-carbamoyl]-2-(1H-imidazole-4-yl)-ethyl]carbamic Acid Benzyl Ester]	0.31	–	0.05	5.8	0.0076	> 1	0.005	0.15	–
CC(C)(CNC(=O)CN(Cc1ccccc1)C(=O)[C@H](Cc1c[nH]cn1)NC(=O)OCc1ccccc1)c1ccccc1 [Example 42, (S)-[1-{Benzyl-[(2-methyl-2-phenyl-propylcarbamoyl)-methyl]-carbamoyl}-2-(1H-imidazole-4-yl)-ethyl]-carbamic Acid Benzyl Ester]	–	–	0.05	0.6	0.005	0.51	–	–	–
